Laboratory results published in PubChem BioAssay (NCI).
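Exposure lasted 48 hours, with cells grown in 96-well plates and compounds tested at five concentrations. Definition used: TGI = concentration required for complete inhibition of growth.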

Columns and labels:
Test in all cases: inhibition of tumour cell growth, NCI panel, 48 h
HS 578T breast = system: HS 578T breast
HCC-2998 colon = system: HCC-2998 colon
SK-MEL-28 melanoma = system: SK-MEL-28 melanoma
SF-268 CNS = system: SF-268 CNS
BT-549 breast = system: BT-549 breast
DU-145 prostate = system: DU-145 prostate
TK-10 renal = system: TK-10 renal
UACC-62 melanoma = system: UACC-62 melanoma
CCRF-CEM leukemia = system: CCRF-CEM leukemia
OVCAR-3 ovarian = system: OVCAR-3 ovarian
SNB-75 CNS = system: SNB-75 CNS
T-47D breast = system: T-47D breast
SF-539 CNS = system: SF-539 CNS
OVCAR-8 ovarian = system: OVCAR-8 ovarian
OVCAR-5 ovarian = system: OVCAR-5 ovarian
SNB-19 CNS = system: SNB-19 CNS
HT29 colon = system: HT29 colon
SN12C renal = system: SN12C renal
ACHN renal = system: ACHN renal
COLO 205 colon = system: COLO 205 colon
M14 melanoma = system: M14 melanoma
SK-MEL-2 melanoma = system: SK-MEL-2 melanoma
NCI-H23 lung = system: NCI-H23 lung
U251 CNS = system: U251 CNS
CAKI-1 renal = system: CAKI-1 renal
PC-3 prostate = system: PC-3 prostate
SW-620 colon = system: SW-620 colon
IGROV1 ovarian = system: IGROV1 ovarian
HOP-62 NSCLC = system: HOP-62 NSCLC
KM12 colon = system: KM12 colon
RPMI-8226 leukemia = system: RPMI-8226 leukemia
HCT-116 colon = system: HCT-116 colon
UACC-257 melanoma = system: UACC-257 melanoma
786-0 renal = system: 786-0 renal
NCI/ADR-RES ovarian = system: NCI/ADR-RES ovarian
HL-60(TB) leukemia = system: HL-60(TB) leukemia
A549 NSCLC = system: A549 NSCLC
SR leukemia = system: SR leukemia
MDA-MB-435 = system: MDA-MB-435
SK-MEL-5 melanoma = system: SK-MEL-5 melanoma
MDA-N = system: MDA-N
MOLT-4 leukemia = system: MOLT-4 leukemia
SF-295 CNS = system: SF-295 CNS
LOX IMVI melanoma = system: LOX IMVI melanoma
NCI-H522 lung = system: NCI-H522 lung
MDA-MB-231 breast = system: MDA-MB-231 breast
NCI-H460 lung = system: NCI-H460 lung
UO-31 renal = system: UO-31 renal
SK-OV-3 ovarian = system: SK-OV-3 ovarian
OVCAR-4 ovarian = system: OVCAR-4 ovarian
HCT-15 colon = system: HCT-15 colon
NCI-H226 lung = system: NCI-H226 lung
MCF7 breast = system: MCF7 breast
K-562 leukemia = system: K-562 leukemia
A498 renal = system: A498 renal
EKVX NSCLC = system: EKVX NSCLC
HOP-92 NSCLC = system: HOP-92 NSCLC
RXF 393 renal = system: RXF 393 renal

## Nc1n[n+]([O-])c2cnccc2[n+]1[O-]
HS 578T breast
  TGI: > 100 µM
HCC-2998 colon
  TGI: > 100 µM
SK-MEL-28 melanoma
  TGI: > 100 µM
SF-268 CNS
  TGI: > 100 µM
BT-549 breast
  TGI: > 100 µM
DU-145 prostate
  TGI: > 100 µM
TK-10 renal
  TGI: > 100 µM
UACC-62 melanoma
  TGI: 84.9 µM
CCRF-CEM leukemia
  TGI: > 100 µM
OVCAR-3 ovarian
  TGI: > 100 µM
SNB-75 CNS
  TGI: > 100 µM
T-47D breast
  TGI: > 100 µM
SF-539 CNS
  TGI: > 100 µM
OVCAR-8 ovarian
  TGI: > 100 µM
OVCAR-5 ovarian
  TGI: > 100 µM
SNB-19 CNS
  TGI: > 100 µM
HT29 colon
  TGI: > 100 µM
SN12C renal
  TGI: > 100 µM
ACHN renal
  TGI: > 100 µM
COLO 205 colon
  TGI: > 100 µM
M14 melanoma
  TGI: > 100 µM
SK-MEL-2 melanoma
  TGI: > 100 µM
NCI-H23 lung
  TGI: > 100 µM
U251 CNS
  TGI: > 100 µM
CAKI-1 renal
  TGI: > 100 µM
PC-3 prostate
  TGI: > 100 µM
SW-620 colon
  TGI: > 100 µM
IGROV1 ovarian
  TGI: > 100 µM
HOP-62 NSCLC
  TGI: > 100 µM
KM12 colon
  TGI: > 100 µM
RPMI-8226 leukemia
  TGI: > 100 µM
HCT-116 colon
  TGI: > 100 µM
UACC-257 melanoma
  TGI: 77.9 µM
786-0 renal
  TGI: > 100 µM
NCI/ADR-RES ovarian
  TGI: > 100 µM
HL-60(TB) leukemia
  TGI: 47.7 µM
A549 NSCLC
  TGI: > 100 µM
SR leukemia
  TGI: > 100 µM
MDA-MB-435
  TGI: 38.5 µM
SK-MEL-5 melanoma
  TGI: 30 µM
MDA-N
  TGI: 36.6 µM
MOLT-4 leukemia
  TGI: > 100 µM
SF-295 CNS
  TGI: > 100 µM
LOX IMVI melanoma
  TGI: > 100 µM
NCI-H522 lung
  TGI: > 100 µM
MDA-MB-231 breast
  TGI: > 100 µM
NCI-H460 lung
  TGI: > 100 µM
UO-31 renal
  TGI: > 100 µM
SK-OV-3 ovarian
  TGI: > 100 µM
OVCAR-4 ovarian
  TGI: > 100 µM
HCT-15 colon
  TGI: > 100 µM
NCI-H226 lung
  TGI: > 100 µM

## COC(=O)c1cccc2c1Oc1ccccc1S2
MCF7 breast
  TGI: > 100 µM
HS 578T breast
  TGI: > 100 µM
SK-MEL-28 melanoma
  TGI: > 100 µM
K-562 leukemia
  TGI: > 100 µM
SF-268 CNS
  TGI: > 100 µM
BT-549 breast
  TGI: > 100 µM
A498 renal
  TGI: > 100 µM
DU-145 prostate
  TGI: > 100 µM
TK-10 renal
  TGI: > 100 µM
UACC-62 melanoma
  TGI: > 100 µM
CCRF-CEM leukemia
  TGI: 56.9 µM
OVCAR-3 ovarian
  TGI: > 100 µM
SNB-75 CNS
  TGI: 71.1 µM
T-47D breast
  TGI: > 100 µM
EKVX NSCLC
  TGI: > 100 µM
SF-539 CNS
  TGI: > 100 µM
OVCAR-8 ovarian
  TGI: > 100 µM
OVCAR-5 ovarian
  TGI: > 100 µM
SNB-19 CNS
  TGI: > 100 µM
HT29 colon
  TGI: 75.2 µM
SN12C renal
  TGI: > 100 µM
ACHN renal
  TGI: > 100 µM
COLO 205 colon
  TGI: 79.4 µM
M14 melanoma
  TGI: > 100 µM
SK-MEL-2 melanoma
  TGI: > 100 µM
U251 CNS
  TGI: > 100 µM
CAKI-1 renal
  TGI: 65.1 µM
PC-3 prostate
  TGI: > 100 µM
SW-620 colon
  TGI: > 100 µM
IGROV1 ovarian
  TGI: > 100 µM
HOP-62 NSCLC
  TGI: > 100 µM
KM12 colon
  TGI: 36.4 µM
RPMI-8226 leukemia
  TGI: > 100 µM
HCT-116 colon
  TGI: > 100 µM
UACC-257 melanoma
  TGI: > 100 µM
786-0 renal
  TGI: > 100 µM
NCI/ADR-RES ovarian
  TGI: > 100 µM
HL-60(TB) leukemia
  TGI: 28.9 µM
A549 NSCLC
  TGI: > 100 µM
SR leukemia
  TGI: > 100 µM
MDA-MB-435
  TGI: > 100 µM
SK-MEL-5 melanoma
  TGI: 54.9 µM
MDA-N
  TGI: > 100 µM
MOLT-4 leukemia
  TGI: 70 µM
SF-295 CNS
  TGI: > 100 µM
LOX IMVI melanoma
  TGI: > 100 µM
NCI-H522 lung
  TGI: > 100 µM
MDA-MB-231 breast
  TGI: > 100 µM
HOP-92 NSCLC
  TGI: > 100 µM
NCI-H460 lung
  TGI: > 100 µM
UO-31 renal
  TGI: > 100 µM
RXF 393 renal
  TGI: > 100 µM
SK-OV-3 ovarian
  TGI: > 100 µM
OVCAR-4 ovarian
  TGI: > 100 µM
HCT-15 colon
  TGI: > 100 µM
NCI-H226 lung
  TGI: > 100 µM
